Source: US8785457B2 (Cellzome Limited, priority 2009, dated 2014)
pIC50: −log10 of the molar value. Where a name gives a salt, the structure may show the parent alone. Read-outs that look alike come from different tables or passages of the source.

Key:
PI3 Kgamma (PI3 Kg) = target: T1, PI3 Kgamma (PI3 Kg) (Homo sapiens, UniProt P48736); assay: kinobeads assay, PI3Kgamma; format: binding
T1 construct: endogenous in cells; host or cells: cell lysate
Outline: (§1)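 Read-out is multiplexed immunodetection of kinase eluted from phenylmorpholin-chromen ligand beads after their incubation in cell lysate with test compound at various concentrations. Reduced capture reflects competition, and per-kinase dose-response curves yield IC50.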

PI3 Kbeta (PI3 Kb) = target: T2, PI3 Kbeta (PI3 Kb) (Homo sapiens, UniProt P42338); assay: kinobeads assay, PI3Kbeta; format: binding
T2 construct: endogenous in cells; host or cells: cell lysate
T2 sequence (P42338 whole entry): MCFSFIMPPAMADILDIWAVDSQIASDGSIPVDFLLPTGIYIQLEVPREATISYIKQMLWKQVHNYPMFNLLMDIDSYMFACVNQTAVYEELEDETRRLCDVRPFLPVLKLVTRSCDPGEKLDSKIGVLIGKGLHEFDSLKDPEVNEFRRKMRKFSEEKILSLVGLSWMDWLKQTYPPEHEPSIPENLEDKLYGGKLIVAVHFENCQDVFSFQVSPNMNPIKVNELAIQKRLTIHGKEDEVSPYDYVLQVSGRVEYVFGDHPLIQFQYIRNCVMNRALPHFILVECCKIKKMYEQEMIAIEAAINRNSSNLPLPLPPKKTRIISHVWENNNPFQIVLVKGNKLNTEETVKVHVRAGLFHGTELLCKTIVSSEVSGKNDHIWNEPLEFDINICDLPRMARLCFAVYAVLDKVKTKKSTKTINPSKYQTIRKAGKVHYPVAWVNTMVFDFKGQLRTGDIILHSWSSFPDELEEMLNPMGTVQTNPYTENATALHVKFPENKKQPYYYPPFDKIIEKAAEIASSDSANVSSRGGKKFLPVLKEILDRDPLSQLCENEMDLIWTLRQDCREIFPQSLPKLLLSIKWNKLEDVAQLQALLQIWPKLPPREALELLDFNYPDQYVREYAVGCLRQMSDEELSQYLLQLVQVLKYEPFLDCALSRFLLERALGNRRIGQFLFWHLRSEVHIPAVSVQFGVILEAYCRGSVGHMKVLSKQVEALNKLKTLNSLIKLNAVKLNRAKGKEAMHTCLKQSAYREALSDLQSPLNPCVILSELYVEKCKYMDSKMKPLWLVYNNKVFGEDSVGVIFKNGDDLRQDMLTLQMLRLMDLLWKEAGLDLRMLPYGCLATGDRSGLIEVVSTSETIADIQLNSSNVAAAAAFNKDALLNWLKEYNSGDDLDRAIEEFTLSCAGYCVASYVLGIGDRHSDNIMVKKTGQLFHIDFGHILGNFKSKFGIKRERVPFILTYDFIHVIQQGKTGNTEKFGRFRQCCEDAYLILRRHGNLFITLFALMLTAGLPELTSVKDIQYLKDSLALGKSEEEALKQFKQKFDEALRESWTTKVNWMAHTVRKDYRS
T2 sequence (P27986 whole entry partner): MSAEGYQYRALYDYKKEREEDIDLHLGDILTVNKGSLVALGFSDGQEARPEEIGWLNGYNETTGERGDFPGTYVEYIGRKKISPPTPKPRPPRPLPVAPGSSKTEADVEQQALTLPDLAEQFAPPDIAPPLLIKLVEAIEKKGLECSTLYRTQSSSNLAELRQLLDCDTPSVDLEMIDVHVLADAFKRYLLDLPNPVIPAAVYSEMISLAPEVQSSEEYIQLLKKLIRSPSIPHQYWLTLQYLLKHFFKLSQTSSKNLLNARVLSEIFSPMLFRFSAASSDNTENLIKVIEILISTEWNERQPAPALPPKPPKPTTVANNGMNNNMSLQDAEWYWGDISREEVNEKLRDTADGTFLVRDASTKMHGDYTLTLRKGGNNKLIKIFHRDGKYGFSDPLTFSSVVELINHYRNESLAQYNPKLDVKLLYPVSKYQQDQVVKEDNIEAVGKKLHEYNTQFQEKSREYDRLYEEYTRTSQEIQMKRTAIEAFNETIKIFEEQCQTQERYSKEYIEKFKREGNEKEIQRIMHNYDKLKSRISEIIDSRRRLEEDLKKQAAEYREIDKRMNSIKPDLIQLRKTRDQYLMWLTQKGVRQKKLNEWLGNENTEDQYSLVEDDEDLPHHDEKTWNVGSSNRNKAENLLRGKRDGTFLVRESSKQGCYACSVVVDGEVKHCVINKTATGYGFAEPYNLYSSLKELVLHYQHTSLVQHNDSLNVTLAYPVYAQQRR
Description: The kinobeads assay was performed as a competitive binding assay in which test compounds were added directly into a cell lysate. Test compounds (at various concentrations) and the affinity matrix (beads with immobilized phenylmorpholin-chromen ligand) were added to cell lysate aliquots and allowed to bind to the proteins contained in the lysate sample. After the incubation time the beads with captured proteins were separated from the lysate. Bound proteins were then eluted and the presence of kinases was detected and quantified using a multiplexed immunodetection format. Dose response curves for individual kinases were generated and IC50 values calculated.
The effect of the compounds on the kinases PI3Kalpha (PI3Ka), PI3 Kbeta (PI3 Kb) and PI3 Kgamma (PI3 Kg) were tested in the kinobeads assay as described (WO-A 2009/098021).

mTOR = target: T3, mTOR (Homo sapiens, UniProt P42345); assay: mTOR kinobeads assay (competitive binding in Jurkat cell lysate, immunodetection)
T3 construct: endogenous in cells; host or cells: Jurkat, clone E6-1 (ATCC TIB-152) cell lysate
Outline: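 IC50 derived from dose-response curves of mTOR captured on immobilized phenylmorpholin-chromen beads, detected by antibody dot blot with infrared fluorescence.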

PI3K delta (PI3 Kd) = target: T4, PI3K delta (PI3 Kd) (Homo sapiens, UniProt O00329); assay: kinobeads assay, PI3K delta; format: binding
T4 construct: endogenous in cells; host or cells: Jurkat, clone E6-1 (ATCC TIB-152) cell lysate
T4 sequence (O00329 whole entry): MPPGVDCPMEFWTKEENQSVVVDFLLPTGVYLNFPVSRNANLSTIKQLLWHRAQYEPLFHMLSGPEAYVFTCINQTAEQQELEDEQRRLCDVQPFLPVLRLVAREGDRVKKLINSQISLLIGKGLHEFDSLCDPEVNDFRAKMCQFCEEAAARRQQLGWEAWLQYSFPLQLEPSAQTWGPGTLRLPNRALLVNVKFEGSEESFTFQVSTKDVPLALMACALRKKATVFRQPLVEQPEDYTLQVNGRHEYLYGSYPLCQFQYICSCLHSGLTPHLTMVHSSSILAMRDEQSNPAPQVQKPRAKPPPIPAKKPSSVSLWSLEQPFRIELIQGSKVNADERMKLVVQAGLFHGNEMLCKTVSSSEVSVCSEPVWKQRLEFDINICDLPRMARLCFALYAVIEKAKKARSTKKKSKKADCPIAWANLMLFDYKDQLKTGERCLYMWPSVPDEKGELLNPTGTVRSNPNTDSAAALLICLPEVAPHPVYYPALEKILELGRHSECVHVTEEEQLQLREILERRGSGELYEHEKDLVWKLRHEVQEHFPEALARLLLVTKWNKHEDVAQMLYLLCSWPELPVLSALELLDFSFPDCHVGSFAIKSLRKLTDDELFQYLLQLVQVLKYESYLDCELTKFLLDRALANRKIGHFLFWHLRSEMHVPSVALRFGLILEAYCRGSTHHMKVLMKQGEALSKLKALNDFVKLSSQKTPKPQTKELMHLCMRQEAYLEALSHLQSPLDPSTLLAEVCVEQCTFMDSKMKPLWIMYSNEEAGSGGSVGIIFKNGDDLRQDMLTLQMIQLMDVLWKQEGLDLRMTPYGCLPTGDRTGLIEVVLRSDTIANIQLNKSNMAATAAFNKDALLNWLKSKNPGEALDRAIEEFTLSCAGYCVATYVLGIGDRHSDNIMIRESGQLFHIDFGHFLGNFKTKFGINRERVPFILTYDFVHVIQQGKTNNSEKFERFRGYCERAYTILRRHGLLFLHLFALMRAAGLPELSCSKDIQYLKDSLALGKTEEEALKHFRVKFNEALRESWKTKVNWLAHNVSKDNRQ
T4 sequence (P27986 whole entry partner): as the sequence (P27986 whole entry partner) above
Outline: (§2)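 IC50 values came from dose-response curves after test compound (1:3 series) competed with an immobilized phenylmorpholin-chromen affinity matrix for kinases in Jurkat lysate at 5 mg/mL protein. Eluted captured DNA-PK and PI3Kδ were measured by specific-antibody dot blot and infrared imaging. Buffer was Tris pH 7.4, NP40, MgCl2, NaCl, vanadate, DTT, NaF.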

PI3Kalpha (PI3Ka) = target: T5, PI3Kalpha (PI3Ka) (Homo sapiens, UniProt P42336); assay: kinobeads assay, PI3Kalpha; format: binding
T5 construct: endogenous in cells; host or cells: cell lysate
T5 sequence (P42336 whole entry): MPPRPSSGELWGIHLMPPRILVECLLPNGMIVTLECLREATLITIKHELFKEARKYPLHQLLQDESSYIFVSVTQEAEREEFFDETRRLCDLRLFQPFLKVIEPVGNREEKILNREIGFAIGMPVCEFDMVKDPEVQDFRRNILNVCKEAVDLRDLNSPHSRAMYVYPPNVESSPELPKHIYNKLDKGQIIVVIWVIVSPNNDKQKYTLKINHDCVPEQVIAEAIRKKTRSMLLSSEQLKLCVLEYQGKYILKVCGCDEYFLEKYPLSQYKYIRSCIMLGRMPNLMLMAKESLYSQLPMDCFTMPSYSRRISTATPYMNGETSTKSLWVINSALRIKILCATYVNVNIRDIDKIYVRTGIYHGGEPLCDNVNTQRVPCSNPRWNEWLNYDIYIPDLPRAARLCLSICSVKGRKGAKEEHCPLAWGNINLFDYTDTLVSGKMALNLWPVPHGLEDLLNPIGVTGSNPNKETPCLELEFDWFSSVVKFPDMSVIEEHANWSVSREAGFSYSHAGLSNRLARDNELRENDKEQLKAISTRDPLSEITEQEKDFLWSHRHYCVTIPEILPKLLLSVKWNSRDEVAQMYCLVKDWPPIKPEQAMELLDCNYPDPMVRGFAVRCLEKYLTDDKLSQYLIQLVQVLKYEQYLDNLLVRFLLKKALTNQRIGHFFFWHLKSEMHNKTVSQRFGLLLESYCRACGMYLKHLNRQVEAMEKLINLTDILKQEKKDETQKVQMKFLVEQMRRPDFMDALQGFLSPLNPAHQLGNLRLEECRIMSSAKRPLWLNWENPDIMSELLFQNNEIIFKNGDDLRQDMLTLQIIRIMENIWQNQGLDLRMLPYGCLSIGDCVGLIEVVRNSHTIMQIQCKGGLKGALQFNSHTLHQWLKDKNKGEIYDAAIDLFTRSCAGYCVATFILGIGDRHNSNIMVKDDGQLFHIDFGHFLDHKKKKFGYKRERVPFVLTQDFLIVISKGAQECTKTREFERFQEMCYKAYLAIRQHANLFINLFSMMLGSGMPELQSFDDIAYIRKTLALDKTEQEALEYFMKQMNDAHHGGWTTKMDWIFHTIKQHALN
T5 sequence (P27986 whole entry partner): as the sequence (P27986 whole entry partner) above
Outline: as §1

[1] = target: T6, DNA-dependent protein kinase (DNA-PK) (Homo sapiens, UniProt P78527); assay: kinobeads assay, DNA-PK; format: binding
T6 construct: endogenous in cells; host or cells: Jurkat, clone E6-1 (ATCC TIB-152) cell lysate
Outline: as §2

[2] = Further Kinobeads Data, read-out: PI3Kg
[3] = Further Kinobeads Data, read-out: PI3Kb
[4] = Further Kinobeads Data, read-out: mTor
[5] = Further Kinobeads Data, read-out: PI3Kd
[6] = Further Kinobeads Data, read-out: DNAPK
[7] = kinobeads assay, Table 6, read-out: Inhibition values (IC50) PI3Kg
[8] = kinobeads assay, Table 6, read-out: Inhibition values (IC50) PI3Kb
[9] = kinobeads assay, Table 6, read-out: Inhibition values (IC50) mTOR
[10] = kinobeads assay, Table 6, read-out: Inhibition values (IC50) PI3Kd
[11] = kinobeads assay, Table 6, read-out: Inhibition values (IC50) DNAPK
[12] = kinobeads assay, Table 6, read-out: Inhibition values (IC50) PI3Ka

T1 sequence (P48736 whole entry): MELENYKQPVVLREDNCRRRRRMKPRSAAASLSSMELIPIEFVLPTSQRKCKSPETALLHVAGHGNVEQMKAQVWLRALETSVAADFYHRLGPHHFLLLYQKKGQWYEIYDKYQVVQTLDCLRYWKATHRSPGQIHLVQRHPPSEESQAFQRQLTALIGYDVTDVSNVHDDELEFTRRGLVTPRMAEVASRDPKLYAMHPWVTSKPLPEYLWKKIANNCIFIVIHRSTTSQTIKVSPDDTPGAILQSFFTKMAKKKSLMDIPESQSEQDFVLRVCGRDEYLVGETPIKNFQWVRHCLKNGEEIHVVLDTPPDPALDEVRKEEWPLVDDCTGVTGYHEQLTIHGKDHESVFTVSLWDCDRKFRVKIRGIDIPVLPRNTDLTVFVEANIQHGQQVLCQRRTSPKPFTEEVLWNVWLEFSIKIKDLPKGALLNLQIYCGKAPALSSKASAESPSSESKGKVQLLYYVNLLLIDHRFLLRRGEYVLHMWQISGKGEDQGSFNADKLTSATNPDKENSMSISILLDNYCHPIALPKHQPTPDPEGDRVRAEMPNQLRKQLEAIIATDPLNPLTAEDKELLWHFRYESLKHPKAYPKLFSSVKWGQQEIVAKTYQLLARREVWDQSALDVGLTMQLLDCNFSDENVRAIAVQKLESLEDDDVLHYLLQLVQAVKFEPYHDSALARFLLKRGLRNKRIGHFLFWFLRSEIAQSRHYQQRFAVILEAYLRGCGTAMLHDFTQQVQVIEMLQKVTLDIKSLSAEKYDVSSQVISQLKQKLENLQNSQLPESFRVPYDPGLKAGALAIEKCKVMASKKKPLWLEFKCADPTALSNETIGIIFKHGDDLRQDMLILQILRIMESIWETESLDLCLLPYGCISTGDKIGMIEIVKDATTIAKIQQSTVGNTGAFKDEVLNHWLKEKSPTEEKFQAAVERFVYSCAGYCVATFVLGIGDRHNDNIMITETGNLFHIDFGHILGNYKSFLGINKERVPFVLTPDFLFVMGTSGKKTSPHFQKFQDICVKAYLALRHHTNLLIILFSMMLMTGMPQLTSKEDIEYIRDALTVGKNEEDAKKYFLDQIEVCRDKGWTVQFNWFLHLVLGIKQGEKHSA

pIC50 (PI3 Kgamma (PI3 Kg); [2])	pIC50 (PI3 Kbeta (PI3 Kb); [3])	pIC50 (mTOR; [4])	pIC50 (PI3K delta (PI3 Kd); [5])	PI3Ka (PI3Kalpha (PI3Ka); Further Kinobeads Data)	pIC50 [1, 6]	pIC50 (PI3 Kgamma (PI3 Kg); [7])	pIC50 (PI3 Kbeta (PI3 Kb); [8])	pIC50 (mTOR; [9])	pIC50 (PI3K delta (PI3 Kd); [10])	Inhibition values (IC50) PI3Ka (PI3Kalpha (PI3Ka); kinobeads assay, Table 6)	pIC50 [1, 11]	pIC50 (mTOR; kinobeads assay, Table 4, read-out: Inhibition values (IC50) mTor)	pIC50 (PI3K delta (PI3 Kd); kinobeads assay, Table 4, read-out: Inhibition values (IC50) PI3Kd)	pIC50 ([1]; kinobeads assay, Table 4, read-out: Inhibition values (IC50) DNA-PK)	pIC50 (PI3Kalpha (PI3Ka); [12])	pIC50 (PI3Kalpha (PI3Ka); Further Kinobeads Data, read-out: PI3Ka)	SMILES
< 5.00	< 5.00	6.00 to 7.00	< 5.00	D (D >10 μM)	< 5.00	–	–	–	–	–	–	–	–	–	–	–	COC(=O)N1Cc2nc(-c3ccc(NC(=O)NCCO)cc3F)nc(N3CCOCC3)c2C1 [Example 175, Methyl 2-(2-fluoro-4-(3-(2-hydroxyethyl)ureido)phenyl)-4-morpholino-5H-pyrrolo[3,4-d]pyrimidine-6(7H)-carboxylate]
–	–	–	–	–	–	< 5.00	< 5.00	6.00 to 7.00	< 5.00	D (D >10 μM)	< 5.00	–	–	–	–	–	CCNC(=O)Nc1ccc(-c2nc3c(c(N4CCOC[C@@H]4C)n2)CCN(C)C3)c(C)c1 [Example 109, (S)-1-ethyl-3-(3-methyl-4-(7-methyl-4-(3-methylmorpholino)-5,6,7,8-tetrahydropyrido[3,4-d]pyrimidin-2-yl)phenyl)urea]
–	–	–	–	–	–	6.00 to 7.00	5.00 to 6.00	> 7.00	5.00 to 6.00	B (B >0.1 μM < 1 μM)	< 5.00	> 7.00	5.00 to 6.00	< 5.00	–	–	C[C@H]1COCCN1c1nc(-c2ccc(NC(N)=O)cc2)nc2c1CNC2 [Example 5, (S)-1-(4-(4-(3-methylmorpholino)-6,7-dihydro-5H-pyrrolo[3,4-d]pyrimidin-2-yl)phenyl)urea]
< 5.00	< 5.00	> 7.00	< 5.00	D (D >10 μM)	< 5.00	–	–	–	–	–	–	–	–	–	–	–	Cl.O=C(Nc1ccc(-c2nc3c(c(N4CCOCC4)n2)CNC3)c(F)c1)NC1CC1 [Example 148, 1-(Cyclopropyl)-3-(3-fluoro-4-(4-morpholino-6,7-dihydro-5H-pyrrolo[3,4-d]pyrimidin-2-yl)phenyl)urea hydrochloride]
< 5.00	< 5.00	5.00 to 6.00	< 5.00	D (D >10 μM)	< 5.00	–	–	–	–	–	–	–	–	–	–	–	CCNC(=O)Nc1ccc(-c2nc3c(c(N4CCOC[C@@H]4C)n2)CN(C)C3)c(F)c1F [Example 140, (S)-1-(2,3-difluoro-4-(6-methyl-4-(3-methylmorpholino)-6,7-dihydro-5H-pyrrolo[3,4-d]pyrimidin-2-yl)phenyl)-3-ethylurea]
–	–	–	–	–	–	< 5.00	< 5.00	6.00 to 7.00	< 5.00	D (D >10 μM)	< 5.00	–	–	–	–	–	CCOC(=O)N1Cc2nc(-c3ccc(NC(=O)Nc4ccc(CO)cc4)cc3)nc(N3CCOC[C@@H]3C)c2C1 [Example 119, (S)-ethyl 2-(4-(3-(4-(hydroxymethyl)phenyl)ureido)phenyl)-4-(3-methylmorpholino)-5H-pyrrolo[3,4-d]pyrimidine-6(7H)-carboxylate]
–	–	–	–	–	–	< 5.00	5.00 to 6.00	> 7.00	5.00 to 6.00	–	< 5.00	–	–	–	5.00 to 6.00	–	CC(=O)N(C)CCC(=O)N1Cc2nc(-c3ccc(NC(=O)NC4CC4)cc3)nc(N3CCOC[C@@H]3C)c2C1 [Example 135, (S)—N-(3-(2-(4-(3-cyclopropylureido)phenyl)-4-(3-methylmorpholino)-5H-pyrrolo[3,4-d]pyrimidin-6(7H)-yl)-3-oxopropyl)-N-methylacetamide]
–	–	–	–	–	–	< 5.00	< 5.00	6.00 to 7.00	< 5.00	D (D >10 μM)	< 5.00	–	–	–	–	–	CCOC(=O)N1Cc2nc(-c3ccc(NC(=O)Nc4cccc(O)c4)cc3)nc(N3CCOC[C@@H]3C)c2C1 [Example 111, (S)-ethyl 2-(4-(3-(3-hydroxyphenyl)ureido)phenyl)-4-(3-methylmorpholino)-5H-pyrrolo[3,4-d]pyrimidine-6(7H)-carboxylate]
–	–	–	–	–	–	< 5.00	5.00 to 6.00	> 7.00	5.00 to 6.00	–	< 5.00	–	–	–	5.00 to 6.00	–	C[C@H]1COCCN1c1nc(-c2ccc(NC(=O)NC3CC3)cc2)nc2c1CN(C(=O)CCNC(N)=O)C2 [Example 136, (S)-1-cyclopropyl-3-(4-(4-(3-methylmorpholino)-6-(3-ureidopropanoyl)-6,7-dihydro-5H-pyrrolo[3,4-d]pyrimidin-2-yl)phenyl)urea]
–	–	–	–	–	–	< 5.00	< 5.00	6.00 to 7.00	< 5.00	D (D >10 μM)	< 5.00	–	–	–	–	–	CCOC(=O)N1Cc2nc(-c3ccc(NC(=O)Nc4cccnc4)cc3)nc(N3CCOC[C@@H]3C)c2C1 [Example 118, (S)-ethyl 4-(3-methylmorpholino)-2-(4-(3-(pyridin-3-yl)ureido)phenyl)-5H-pyrrolo[3,4-d]pyrimidine-6(7H)-carboxylate]
< 5.00	< 5.00	< 5.00	< 5.00	D (D >10 μM)	< 5.00	–	–	–	–	–	–	–	–	–	–	–	CCNC(=O)Nc1cc(F)c(-c2nc3c(c(N4CCOC[C@@H]4C)n2)CN(C(=O)OCC)C3)c(F)c1 [Example 142, (S)-ethyl 2-(4-(3-ethylureido)-2,6-difluorophenyl)-4-(3-methylmorpholino)-5H-pyrrolo[3,4-d]pyrimidine-6(7H)-carboxylate]
–	–	–	–	–	–	< 5.00	5.00 to 6.00	> 7.00	5.00 to 6.00	–	< 5.00	–	–	–	5.00 to 6.00	–	CCNC(=O)Nc1ccc(-c2nc3c(c(N4CCOCC4)n2)CN(C(C)=O)C3)cc1 [Example 99, 1-(4-(6-acetyl-4-morpholino-6,7-dihydro-5H-pyrrolo[3,4-d]pyrimidin-2-yl)phenyl)-3-ethylurea]
–	–	–	–	–	–	< 5.00	5.00 to 6.00	> 7.00	5.00 to 6.00	–	< 5.00	–	–	–	5.00 to 6.00	–	C[C@H]1COCCN1c1nc(-c2ccc(NC(=O)NC3CC3)cc2)nc2c1CN(C(=O)CCN1CCCC1=O)C2 [Example 132, (S)-1-cyclopropyl-3-(4-(4-(3-methylmorpholino)-6-(3-(2-oxopyrrolidin-1-yl)propanoyl)-6,7-dihydro-5H-pyrrolo[3,4-d]pyrimidin-2-yl)phenyl)urea]
–	–	–	–	–	–	< 5.00	< 5.00	6.00 to 7.00	< 5.00	–	< 5.00	–	–	–	5.00 to 6.00	–	CCNC(=O)Nc1cnc(-c2nc3c(c(N4CCOC[C@@H]4C)n2)CN(C(=O)OCC)C3)cn1 [Example 116, (S)-ethyl-2-(5-(3-ethylureido)pyrazin-2-yl)-4-(3-methylmorpholino)-5H-pyrrolo[3,4-d]pyrimidine-6(7H)-carboxylate]
< 5.00	< 5.00	> 7.00	< 5.00	D (D >10 μM)	< 5.00	–	–	–	–	–	–	–	–	–	–	–	CC(C)(C)OC(=O)N1Cc2nc(-c3ccc(NC(=O)NC4CC4)cc3F)nc(N3CCOCC3)c2C1 [Example 143, tert-Butyl 2-(4-(3-cyclopropylureido)-2-fluorophenyl)-4-morpholino-5H-pyrrolo[3,4-d]pyrimidine-6(7H)-carboxylate]
< 5.00	< 5.00	> 7.00	< 5.00	D (D >10 μM)	< 5.00	–	–	–	–	–	–	–	–	–	–	–	CCNC(=O)Nc1ccc(-c2nc3c(c(N4CCOCC4)n2)CN(C(C)=O)C3)c(F)c1 [Example 161, 1-(4-(6-acetyl-4-morpholino-6,7-dihydro-5H-pyrrolo[3,4-d]pyrimidin-2-yl)-3-fluorophenyl)-3-ethylurea]
< 5.00	< 5.00	6.00 to 7.00	< 5.00	–	< 5.00	–	–	–	–	–	–	–	–	–	–	5.00 to 6.00	C[C@H]1COCCN1c1nc(-c2ccc(NC(=O)NC3CC3)cc2F)nc2c1CNC2 [Example 149, (S)-1-(Cyclopropyl)-3-(3-fluoro-4-(4-(3-methylmorpholino)-6,7-dihydro-5H-pyrrolo[3,4-d]pyrimidin-2-yl)phenyl)urea hydrochloride]
–	–	–	–	–	–	5.00 to 6.00	5.00 to 6.00	6.00 to 7.00	6.00 to 7.00	B (B >0.1 μM < 1 μM)	< 5.00	–	–	–	–	–	CCOC(=O)N1Cc2nc(-c3ccc(NC(=O)NCC(=O)NC)cc3)nc(N3CCOC[C@@H]3C)c2C1 [Example 125, (S)-ethyl 2-(4-(3-(2-(methylamino)-2-oxoethyl)ureido)phenyl)-4-(3-methylmorpholino)-5H-pyrrolo[3,4-d]pyrimidine-6(7H)-carboxylate]
